Measured values reported in PubChem BioAssay AID192 (DTP/NCI, 2004).
Values joined by “and” are separate entries in the source; they are usually repeats but may differ in a detail not shown here. Equal values may be shown once. Inconclusive results and toxic doses are left out. The calls were made as follows: active = survival T/C of 150% or more; inactive = T/C below 125% in these data.

Tested on: BDF1 mice, B16 melanoma ip, median survival T/C
Test: NCI In Vivo Anticancer Drug Screen. Data for tumor model B16 Melanoma (intraperitoneal) in B6D2F1 (BDF1) mice
Details: endpoint: median survival time, higher = longer survival
How it was run: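 Compounds were tested in mice carrying transplantable tumors. Survival or tumor size was recorded, and each value is the treated-group measurement (T) divided by that of the vehicle-treated control group (C).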

[1] = dose: 50.0 mg/kg/injection, schedule: Q01DX009 (ip), vehicle: saline
[2] = dose: 100.0 mg/kg/injection, schedule: Q01DX009 (ip), vehicle: saline
[3] = dose: 200.0 mg/kg/injection, schedule: Q01DX009 (ip), vehicle: saline
[4] = dose: 50.0 mg/kg/injection, schedule: Q01DX009 (ip), vehicle: Klucel (hydroxypropylcellulose) (HPC)
[5] = dose: 100.0 mg/kg/injection, schedule: Q01DX009 (ip), vehicle: Klucel (hydroxypropylcellulose) (HPC)
[6] = dose: 1.56 mg/kg/injection, schedule: Q01DX009 (ip), vehicle: Klucel (hydroxypropylcellulose) (HPC)
[7] = dose: 3.12 mg/kg/injection, schedule: Q01DX009 (ip), vehicle: Klucel (hydroxypropylcellulose) (HPC)
[8] = dose: 6.25 mg/kg/injection, schedule: Q01DX009 (ip), vehicle: Klucel (hydroxypropylcellulose) (HPC)
[9] = dose: 12.5 mg/kg/injection, schedule: Q01DX009 (ip), vehicle: Klucel (hydroxypropylcellulose) (HPC)
[10] = dose: 100.0 mg/kg/injection, schedule: Q01DX009 (ip), vehicle: other
[11] = dose: 200.0 mg/kg/injection, schedule: Q01DX009 (ip), vehicle: other
[12] = dose: 200.0 mg/kg/injection, schedule: Q01DX009 (ip), vehicle: Klucel (hydroxypropylcellulose) (HPC)
[13] = dose: 400.0 mg/kg/injection, schedule: Q01DX009 (ip), vehicle: Klucel (hydroxypropylcellulose) (HPC)
[14] = dose: 100.0 mg/kg/injection, schedule: Q01DX009 (ip), vehicle: saline with Tween-80
[15] = dose: 200.0 mg/kg/injection, schedule: Q01DX009 (ip), vehicle: saline with Tween-80
[16] = dose: 25.0 mg/kg/injection, schedule: Q01DX009 (ip), vehicle: saline
[17] = dose: 50.0 mg/kg/injection, schedule: Q01DX009 (ip), vehicle: saline with Tween-80
[18] = dose: 100.0 mg/kg/injection, schedule: Q04DX003 (ip), vehicle: Klucel (hydroxypropylcellulose) (HPC)
[19] = dose: 200.0 mg/kg/injection, schedule: Q04DX003 (ip), vehicle: Klucel (hydroxypropylcellulose) (HPC)

Measured: T/C

CC1C2CCC3C(O)C2(CC(O)C2(O)C1CC(O)C2(C)C)CC3(C)O (configuration not stated)
inactive: dose: 0.25 mg/kg/injection, schedule: Q01DX009 (ip), vehicle: Klucel (hydroxypropylcellulose) (HPC) 103 % of control | dose: 0.5 mg/kg/injection, schedule: Q01DX009 (ip), vehicle: Klucel (hydroxypropylcellulose) (HPC) 103 % of control

c1ccc2c(c1)CNNC2
inactive: [1] 123 % of control | [2] 111 % of control | [3] 100 % of control

S=C1SCN(Cc2ccccc2)CN1Cc1ccccc1
inactive: dose: 25.0 mg/kg/injection, schedule: Q01DX009 (ip), vehicle: Klucel (hydroxypropylcellulose) (HPC) 102 % of control and 120 % of control | [4] 102 % of control and 108 % of control | [5] 90 % of control and 97 % of control and 105 % of control

C1=C(c2ccccc2)CCC1
inactive: [1] 97 % of control | [2] 88 % of control

Clc1cc(CBr)c(Cl)c(Cl)c1CBr
inactive: [6] 94 % of control | [7] 88 % of control | [8] 94 % of control | [9] 92 % of control

COC(=O)c1ccc[n+](CC(=O)c2ccccc2)c1
inactive: [1] 95 % of control | [2] 93 % of control | [3] 99 % of control

OCc1ccccc1NCc1ccccc1
inactive: [10] 91 % of control and 109 % of control | [11] 100 % of control | dose: 400.0 mg/kg/injection, schedule: Q01DX009 (ip), vehicle: other 95 % of control and 98 % of control

O=[N+]([O-])/C=C/C(Cl)(Cl)Cl
inactive: [8] 100 % of control | [9] 96 % of control

Cc1c2ccnc(C(N)=O)c2c(C)c2c1[nH]c1ccccc12
inactive: dose: 100.0 mg/kg/injection, schedule: Q04DX003 (ip), vehicle: distilled water + Tween-80 100 % of control | dose: 200.0 mg/kg/injection, schedule: Q04DX003 (ip), vehicle: distilled water + Tween-80 114 % of control

C1CC[N-]CC1.C1CC[N-]CC1.C1CC[N-]CC1.C1CC[N-]CC1.[Cl][Co][Cl]
inactive: dose: 37.5 mg/kg/injection, schedule: Q01DX009 (ip), vehicle: saline with Tween-80 103 % of control | dose: 75.0 mg/kg/injection, schedule: Q01DX009 (ip), vehicle: saline with Tween-80 87 % of control

CN(C)CC(C(=O)c1ccc(Br)cc1)C(Br)c1ccccc1 (configuration not stated)
inactive: dose: 5.0 mg/kg/injection, schedule: Q01DX009 (ip), vehicle: saline with Tween-80 101 % of control | dose: 10.0 mg/kg/injection, schedule: Q01DX009 (ip), vehicle: saline with Tween-80 108 % of control | dose: 20.0 mg/kg/injection, schedule: Q01DX009 (ip), vehicle: saline with Tween-80 101 % of control | dose: 40.0 mg/kg/injection, schedule: Q01DX009 (ip), vehicle: saline with Tween-80 111 % of control

CCOC(=O)Oc1c(OC)cc(C(=O)O[C@@H]2C[C@@H]3CN4CCc5c([nH]c6cc(OC)ccc56)[C@H]4C[C@@H]3[C@H](C(=O)OC)[C@H]2OC)cc1OC
inactive: dose: 0.09 mg/kg/injection, schedule: Q01DX009 (ip), vehicle: saline 98 % of control | dose: 0.19 mg/kg/injection, schedule: Q01DX009 (ip), vehicle: saline 93 % of control | dose: 0.39 mg/kg/injection, schedule: Q01DX009 (ip), vehicle: saline 124 % of control | dose: 0.78 mg/kg/injection, schedule: Q01DX009 (ip), vehicle: saline 101 % of control | dose: 1.56 mg/kg/injection, schedule: Q01DX009 (ip), vehicle: saline 112 % of control | [8] 87 % of control

CCOC(CNC(=O)OCc1ccccc1)OCC
inactive: [5] 93 % of control | [12] 93 % of control | [13] 90 % of control

O=C(O)CCCSc1nc2ccccc2s1
inactive: [14] 100 % of control | [15] 95 % of control

C=CCc1ccccc1OC
inactive: [16] 116 % of control | [1] 109 % of control | [2] 106 % of control

NN1CCCC1
inactive: [16] 110 % of control | [1] 102 % of control | [2] 94 % of control

Cc1c2ccc3ccccc3c2c[n+]2ccccc12
inactive: dose: 1.25 mg/kg/injection, schedule: Q01DX009 (ip), vehicle: Klucel (hydroxypropylcellulose) (HPC) 98 % of control | dose: 2.5 mg/kg/injection, schedule: Q01DX009 (ip), vehicle: Klucel (hydroxypropylcellulose) (HPC) 98 % of control | dose: 5.0 mg/kg/injection, schedule: Q01DX009 (ip), vehicle: Klucel (hydroxypropylcellulose) (HPC) 111 % of control | dose: 10.0 mg/kg/injection, schedule: Q01DX009 (ip), vehicle: Klucel (hydroxypropylcellulose) (HPC) 108 % of control | dose: 20.0 mg/kg/injection, schedule: Q01DX009 (ip), vehicle: Klucel (hydroxypropylcellulose) (HPC) 102 % of control

CC1(C)CC(O)(Cc2ccccc2)C(=O)c2ccccc21 (configuration not stated)
inactive: [4] 94 % of control | [5] 94 % of control | [12] 99 % of control | [13] 97 % of control

C=CCNC(=O)NCC=C
inactive: [16] 114 % of control | [1] 109 % of control | [2] 95 % of control | [3] 100 % of control

O=S(=O)(OCC(COS(=O)(=O)c1ccccc1)(COS(=O)(=O)c1ccccc1)COS(=O)(=O)c1ccccc1)c1ccccc1
inactive: [17] 110 % of control | [14] 97 % of control | [15] 110 % of control

NCC(c1ccccc1)c1ccccc1
inactive: dose: 12.5 mg/kg/injection, schedule: Q01DX009 (ip), vehicle: saline 100 % of control | [16] 91 % of control | [1] 91 % of control

COc1ccccc1NC(=O)Nc1ccc(F)cc1
inactive: [18] 95 % of control | [19] 95 % of control | dose: 400.0 mg/kg/injection, schedule: Q04DX003 (ip), vehicle: Klucel (hydroxypropylcellulose) (HPC) 89 % of control

CC(O)C1(O)C(O)CC(OC2c3cc4c(c(O)c3[C@@H]3C[C@@]2(C)OC32C=c3cc[nH]c3=N2)C(=O)c2cccc(O)c2C4=O)OC1C (some centres not stated)
inactive: dose: 0.5 mg/kg/injection, schedule: Q01DX009 (ip), vehicle: saline with Tween-80 97 % of control | dose: 1.0 mg/kg/injection, schedule: Q01DX009 (ip), vehicle: saline with Tween-80 112 % of control | dose: 2.0 mg/kg/injection, schedule: Q01DX009 (ip), vehicle: saline with Tween-80 109 % of control | dose: 4.0 mg/kg/injection, schedule: Q01DX009 (ip), vehicle: saline with Tween-80 117 % of control | dose: 8.0 mg/kg/injection, schedule: Q01DX009 (ip), vehicle: saline with Tween-80 115 % of control | dose: 16.0 mg/kg/injection, schedule: Q01DX009 (ip), vehicle: saline with Tween-80 124 % of control

CN1C(=O)CCS(=O)(=O)C1c1ccc(Cl)c(Cl)c1 (configuration not stated)
inactive: dose: 0.39 mg/kg/injection, schedule: Q01DX009 (ip), vehicle: Klucel (hydroxypropylcellulose) (HPC) 103 % of control | dose: 0.78 mg/kg/injection, schedule: Q01DX009 (ip), vehicle: Klucel (hydroxypropylcellulose) (HPC) 87 % of control | [6] 109 % of control and 116 % of control | [7] 111 % of control and 118 % of control | [8] 103 % of control and 111 % of control | [9] 97 % of control | [4] 90 % of control

CC1(C)COC(c2ccccc2)=N1
inactive: [2] 123 % of control | [3] 115 % of control

C=CCNC(=O)c1ccccc1SC(C)=O
inactive: dose: 100.0 mg/kg/injection, schedule: Q01DX009 (ip), vehicle: saline + Tween-80 + alcohol 101 % of control | dose: 200.0 mg/kg/injection, schedule: Q01DX009 (ip), vehicle: saline + Tween-80 + alcohol 116 % of control | dose: 400.0 mg/kg/injection, schedule: Q01DX009 (ip), vehicle: saline + Tween-80 + alcohol 124 % of control

C(=N\OCc1ccccc1)/c1ccccn1
inactive: [5] 101 % of control | [12] 101 % of control | [13] 97 % of control

CCCc1ccc(OC)cc1
inactive: dose: 25.0 mg/kg/injection, schedule: Q01DX009 (ip), vehicle: saline with Tween-80 97 % of control | [17] 105 % of control | [14] 90 % of control

Cc1cc(OC(=O)Nc2cccc(Cl)c2)ccc1[N+](=O)[O-]
inactive: [4] 93 % of control | dose: 50.0 mg/kg/injection, schedule: Q04DX003 (ip), vehicle: Klucel (hydroxypropylcellulose) (HPC) 100 % of control | [5] 86 % of control | [18] 100 % of control | [19] 107 % of control

CCCCCCC(=O)CCCC
inactive: [10] 98 % of control | [11] 100 % of control

CC(=O)OC(C)c1ccccc1 (configuration not stated)
inactive: [5] 93 % of control | [12] 96 % of control
